Reference: the kinase profiling compilation of Christmann-Franck et al. (2016)

What follows are compounds tested against PRKX (human) (UniProt P51817) (assay: radiometric filter-binding kinase assay, Kinase HotSpot). Settings: compound 0.5 µM; ATP 10 µM.
PRKX (human), sequence (P51817 whole entry, looked up): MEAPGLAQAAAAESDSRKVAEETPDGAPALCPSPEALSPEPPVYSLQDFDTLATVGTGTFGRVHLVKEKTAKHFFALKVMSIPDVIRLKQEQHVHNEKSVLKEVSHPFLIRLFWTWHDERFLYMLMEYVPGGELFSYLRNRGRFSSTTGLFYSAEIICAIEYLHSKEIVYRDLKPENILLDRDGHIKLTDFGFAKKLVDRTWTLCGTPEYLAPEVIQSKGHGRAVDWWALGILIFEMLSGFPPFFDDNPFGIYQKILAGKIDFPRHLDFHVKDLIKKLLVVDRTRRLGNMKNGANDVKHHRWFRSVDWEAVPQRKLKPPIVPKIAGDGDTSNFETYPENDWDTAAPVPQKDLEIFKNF
Compound `COc1cccc(-c2cc(=O)c3ccccc3o2)c1N` has a residual activity of 101%.
`O=C1NC(=O)c2cc(Nc3ccc(F)cc3)c(Nc3ccc(F)cc3)cc21` showed a residual activity of 103%.
For `N#CCCc1ccc2c(c1)-c1[nH]c3ccc([N+](=O)[O-])cc3c1CC(=O)N2`, the residual activity was 78.4%.

Each compound was assayed against FRK (human) (UniProt P42685) in the same assay as above. Settings: compound 0.5 µM; ATP 10 µM.
FRK (human), sequence (P42685 whole entry, looked up): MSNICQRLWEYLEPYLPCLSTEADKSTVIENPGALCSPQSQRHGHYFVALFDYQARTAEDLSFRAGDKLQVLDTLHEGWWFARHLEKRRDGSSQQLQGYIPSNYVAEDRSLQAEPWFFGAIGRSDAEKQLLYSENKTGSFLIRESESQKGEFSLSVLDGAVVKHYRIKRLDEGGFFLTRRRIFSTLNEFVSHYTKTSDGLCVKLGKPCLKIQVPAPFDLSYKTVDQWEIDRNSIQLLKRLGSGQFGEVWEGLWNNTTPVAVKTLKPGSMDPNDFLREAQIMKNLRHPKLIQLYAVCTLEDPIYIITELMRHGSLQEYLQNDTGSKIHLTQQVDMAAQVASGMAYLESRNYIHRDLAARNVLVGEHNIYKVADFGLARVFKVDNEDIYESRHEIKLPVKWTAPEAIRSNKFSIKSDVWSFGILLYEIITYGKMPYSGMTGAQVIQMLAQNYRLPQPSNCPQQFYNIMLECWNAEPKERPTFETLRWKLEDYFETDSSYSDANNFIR
With `COc1cc2c(cc1OC)-c1[nH]nc(Nc3cccc(F)c3)c1C2` the residual activity was 67.9%.
`Cn1cc(/C=C2\C(=O)Nc3ccc(S(N)(=O)=O)cc32)c2ccccc21` showed a residual activity of 97.1%.
Compound `COc1cccc(-c2cc(=O)c3ccccc3o2)c1N` has a residual activity of 89.5%.
For `O=C1NC(=O)c2cc(Nc3ccc(F)cc3)c(Nc3ccc(F)cc3)cc21`, the residual activity was 97.2%.
Work on `N#CCCc1ccc2c(c1)-c1[nH]c3ccc([N+](=O)[O-])cc3c1CC(=O)N2` yielded a residual activity of 92.7%.

The compounds below were run against SYK (human) (UniProt P43405) in the same assay as above. Settings: compound 0.5 µM; ATP 10 µM.
`COc1cc2c(cc1OC)-c1[nH]nc(Nc3cccc(F)c3)c1C2` showed a residual activity of 103%.
For `Cn1cc(/C=C2\C(=O)Nc3ccc(S(N)(=O)=O)cc32)c2ccccc21`, the residual activity was 16.5%.
`COc1cccc(-c2cc(=O)c3ccccc3o2)c1N` showed a residual activity of 97.2%.
For `O=C1NC(=O)c2cc(Nc3ccc(F)cc3)c(Nc3ccc(F)cc3)cc21`, the residual activity was 98.8%.
In the case of `N#CCCc1ccc2c(c1)-c1[nH]c3ccc([N+](=O)[O-])cc3c1CC(=O)N2`, the residual activity is reported as 58%.

Each compound was assayed against EPHB1 (human) (UniProt P54762) in the same assay as above. Settings: compound 0.5 µM; ATP 10 µM.
EPHB1 (human), sequence (P54762 whole entry, looked up): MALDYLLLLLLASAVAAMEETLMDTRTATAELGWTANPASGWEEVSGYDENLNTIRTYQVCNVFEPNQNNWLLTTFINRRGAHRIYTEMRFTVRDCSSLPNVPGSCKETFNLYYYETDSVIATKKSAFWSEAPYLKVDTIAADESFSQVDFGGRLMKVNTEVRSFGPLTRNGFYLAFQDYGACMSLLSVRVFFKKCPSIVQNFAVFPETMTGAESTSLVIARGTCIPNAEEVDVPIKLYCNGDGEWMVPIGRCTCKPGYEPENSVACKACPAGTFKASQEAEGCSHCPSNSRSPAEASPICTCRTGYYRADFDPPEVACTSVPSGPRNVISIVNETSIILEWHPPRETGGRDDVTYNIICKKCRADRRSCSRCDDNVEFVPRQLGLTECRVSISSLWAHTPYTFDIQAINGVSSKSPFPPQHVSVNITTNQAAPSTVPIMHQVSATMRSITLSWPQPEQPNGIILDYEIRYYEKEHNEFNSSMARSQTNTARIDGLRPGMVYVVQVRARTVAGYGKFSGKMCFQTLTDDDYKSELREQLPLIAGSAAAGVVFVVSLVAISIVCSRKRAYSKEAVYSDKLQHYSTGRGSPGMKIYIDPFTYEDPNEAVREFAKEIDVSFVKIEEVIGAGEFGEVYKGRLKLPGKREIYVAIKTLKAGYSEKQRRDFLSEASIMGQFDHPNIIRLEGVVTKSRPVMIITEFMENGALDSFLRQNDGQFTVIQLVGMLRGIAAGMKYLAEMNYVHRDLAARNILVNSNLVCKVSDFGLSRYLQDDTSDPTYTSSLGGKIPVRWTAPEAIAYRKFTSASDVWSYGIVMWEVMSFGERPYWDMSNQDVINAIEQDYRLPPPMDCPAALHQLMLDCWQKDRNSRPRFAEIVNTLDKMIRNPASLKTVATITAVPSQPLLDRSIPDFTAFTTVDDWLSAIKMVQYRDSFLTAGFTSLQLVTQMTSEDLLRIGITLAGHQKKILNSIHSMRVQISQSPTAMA
For `COc1cc2c(cc1OC)-c1[nH]nc(Nc3cccc(F)c3)c1C2`, the residual activity was 100%.
`Cn1cc(/C=C2\C(=O)Nc3ccc(S(N)(=O)=O)cc32)c2ccccc21` showed a residual activity of 68.7%.
For `COc1cccc(-c2cc(=O)c3ccccc3o2)c1N`, the residual activity was 88%.
With `O=C1NC(=O)c2cc(Nc3ccc(F)cc3)c(Nc3ccc(F)cc3)cc21` the residual activity was 103%.
`N#CCCc1ccc2c(c1)-c1[nH]c3ccc([N+](=O)[O-])cc3c1CC(=O)N2` gave a residual activity of 99.1%.

The compounds below were run against PDPK1 (human) (UniProt O15530) in the same assay as above. Settings: compound 0.5 µM; ATP 10 µM.
`COc1cc2c(cc1OC)-c1[nH]nc(Nc3cccc(F)c3)c1C2` showed a residual activity of 95.9%.
`Cn1cc(/C=C2\C(=O)Nc3ccc(S(N)(=O)=O)cc32)c2ccccc21` showed a residual activity of 95%.
`COc1cccc(-c2cc(=O)c3ccccc3o2)c1N` showed a residual activity of 98.3%.
`O=C1NC(=O)c2cc(Nc3ccc(F)cc3)c(Nc3ccc(F)cc3)cc21` showed a residual activity of 102%.
`N#CCCc1ccc2c(c1)-c1[nH]c3ccc([N+](=O)[O-])cc3c1CC(=O)N2` gave a residual activity of 79.8%.

Each compound was assayed against ACVR1B (human) (UniProt P36896) in the same assay as above. Settings: compound 0.5 µM; ATP 10 µM.
`COc1cc2c(cc1OC)-c1[nH]nc(Nc3cccc(F)c3)c1C2` gave a residual activity of 92.9%.
In the case of `Cn1cc(/C=C2\C(=O)Nc3ccc(S(N)(=O)=O)cc32)c2ccccc21`, the residual activity is reported as 98.4%.
Compound `COc1cccc(-c2cc(=O)c3ccccc3o2)c1N` has a residual activity of 92.5%.
`O=C1NC(=O)c2cc(Nc3ccc(F)cc3)c(Nc3ccc(F)cc3)cc21` gave a residual activity of 94.2%.
Compound `N#CCCc1ccc2c(c1)-c1[nH]c3ccc([N+](=O)[O-])cc3c1CC(=O)N2` has a residual activity of 110%.

Each compound was assayed against EPHA4 (human) (UniProt P54764) in the same assay as above. Settings: compound 0.5 µM; ATP 10 µM.
EPHA4 (human), sequence (P54764 whole entry, looked up): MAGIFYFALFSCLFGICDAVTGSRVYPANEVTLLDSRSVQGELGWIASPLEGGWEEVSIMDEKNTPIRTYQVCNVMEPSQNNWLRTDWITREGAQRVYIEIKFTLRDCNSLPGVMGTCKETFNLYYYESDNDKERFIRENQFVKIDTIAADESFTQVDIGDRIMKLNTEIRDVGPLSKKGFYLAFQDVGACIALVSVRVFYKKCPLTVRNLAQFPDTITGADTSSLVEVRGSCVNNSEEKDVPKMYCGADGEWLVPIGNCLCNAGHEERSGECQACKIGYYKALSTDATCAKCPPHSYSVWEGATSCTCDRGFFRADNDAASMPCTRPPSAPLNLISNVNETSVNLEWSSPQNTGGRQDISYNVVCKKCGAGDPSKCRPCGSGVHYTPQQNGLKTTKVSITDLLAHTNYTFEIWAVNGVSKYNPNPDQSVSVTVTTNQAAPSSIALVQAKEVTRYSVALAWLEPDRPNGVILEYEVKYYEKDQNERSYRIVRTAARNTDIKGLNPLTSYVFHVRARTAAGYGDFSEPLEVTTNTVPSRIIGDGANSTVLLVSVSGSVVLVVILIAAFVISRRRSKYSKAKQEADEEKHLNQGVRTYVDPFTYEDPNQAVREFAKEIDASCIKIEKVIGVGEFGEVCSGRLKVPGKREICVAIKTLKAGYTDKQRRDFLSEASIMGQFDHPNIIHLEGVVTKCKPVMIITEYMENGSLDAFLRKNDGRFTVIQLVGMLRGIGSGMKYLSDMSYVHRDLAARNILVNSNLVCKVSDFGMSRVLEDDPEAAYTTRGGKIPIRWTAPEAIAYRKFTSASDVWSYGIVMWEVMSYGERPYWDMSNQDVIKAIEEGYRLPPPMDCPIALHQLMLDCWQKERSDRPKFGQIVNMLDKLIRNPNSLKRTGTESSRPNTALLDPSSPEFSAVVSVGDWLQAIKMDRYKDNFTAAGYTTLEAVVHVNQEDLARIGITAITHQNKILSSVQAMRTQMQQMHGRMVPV
Compound `COc1cc2c(cc1OC)-c1[nH]nc(Nc3cccc(F)c3)c1C2` has a residual activity of 93.3%.
`Cn1cc(/C=C2\C(=O)Nc3ccc(S(N)(=O)=O)cc32)c2ccccc21` was tested, and the residual activity was 80.5%.
Compound `COc1cccc(-c2cc(=O)c3ccccc3o2)c1N` has a residual activity of 98%.
`O=C1NC(=O)c2cc(Nc3ccc(F)cc3)c(Nc3ccc(F)cc3)cc21` gave a residual activity of 94%.
`N#CCCc1ccc2c(c1)-c1[nH]c3ccc([N+](=O)[O-])cc3c1CC(=O)N2` showed a residual activity of 85.2%.

The compounds below were run against CDK1 CCNA2 (human) (UniProt P06493+P20248) in the same assay as above. Settings: compound 0.5 µM; ATP 10 µM.
CDK1 CCNA2 (human), sequence (P06493 whole entry, looked up): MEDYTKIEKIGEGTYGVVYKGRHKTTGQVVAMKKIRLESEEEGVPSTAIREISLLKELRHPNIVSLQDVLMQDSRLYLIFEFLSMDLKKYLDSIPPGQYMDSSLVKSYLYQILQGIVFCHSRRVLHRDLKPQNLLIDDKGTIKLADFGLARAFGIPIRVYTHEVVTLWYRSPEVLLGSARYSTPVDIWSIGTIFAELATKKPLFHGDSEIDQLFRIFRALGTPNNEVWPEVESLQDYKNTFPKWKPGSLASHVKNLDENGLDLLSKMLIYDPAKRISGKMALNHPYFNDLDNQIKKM
CDK1 CCNA2 (human), sequence (P20248 whole entry, looked up): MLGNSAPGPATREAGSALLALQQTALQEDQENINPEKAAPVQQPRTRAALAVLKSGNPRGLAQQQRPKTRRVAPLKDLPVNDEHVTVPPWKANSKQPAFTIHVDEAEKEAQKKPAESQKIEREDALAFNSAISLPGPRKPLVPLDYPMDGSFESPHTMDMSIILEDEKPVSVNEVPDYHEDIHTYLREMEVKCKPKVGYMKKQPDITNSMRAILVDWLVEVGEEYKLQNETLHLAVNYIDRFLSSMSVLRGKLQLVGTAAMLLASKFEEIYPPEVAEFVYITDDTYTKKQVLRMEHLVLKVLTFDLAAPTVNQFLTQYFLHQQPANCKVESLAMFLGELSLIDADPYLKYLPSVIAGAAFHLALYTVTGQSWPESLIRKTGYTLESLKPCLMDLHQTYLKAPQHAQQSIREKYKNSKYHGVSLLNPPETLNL
For `COc1cc2c(cc1OC)-c1[nH]nc(Nc3cccc(F)c3)c1C2`, the residual activity was 92.6%.
Work on `Cn1cc(/C=C2\C(=O)Nc3ccc(S(N)(=O)=O)cc32)c2ccccc21` yielded a residual activity of 56.9%.
Compound `COc1cccc(-c2cc(=O)c3ccccc3o2)c1N` has a residual activity of 83.8%.
`O=C1NC(=O)c2cc(Nc3ccc(F)cc3)c(Nc3ccc(F)cc3)cc21` showed a residual activity of 96.1%.
`N#CCCc1ccc2c(c1)-c1[nH]c3ccc([N+](=O)[O-])cc3c1CC(=O)N2` showed a residual activity of 24.8%.

The compounds below were run against STK33 (human) (UniProt Q9BYT3) in the same assay as above. Settings: compound 0.5 µM; ATP 10 µM.
STK33 (human), sequence (Q9BYT3 whole entry, looked up): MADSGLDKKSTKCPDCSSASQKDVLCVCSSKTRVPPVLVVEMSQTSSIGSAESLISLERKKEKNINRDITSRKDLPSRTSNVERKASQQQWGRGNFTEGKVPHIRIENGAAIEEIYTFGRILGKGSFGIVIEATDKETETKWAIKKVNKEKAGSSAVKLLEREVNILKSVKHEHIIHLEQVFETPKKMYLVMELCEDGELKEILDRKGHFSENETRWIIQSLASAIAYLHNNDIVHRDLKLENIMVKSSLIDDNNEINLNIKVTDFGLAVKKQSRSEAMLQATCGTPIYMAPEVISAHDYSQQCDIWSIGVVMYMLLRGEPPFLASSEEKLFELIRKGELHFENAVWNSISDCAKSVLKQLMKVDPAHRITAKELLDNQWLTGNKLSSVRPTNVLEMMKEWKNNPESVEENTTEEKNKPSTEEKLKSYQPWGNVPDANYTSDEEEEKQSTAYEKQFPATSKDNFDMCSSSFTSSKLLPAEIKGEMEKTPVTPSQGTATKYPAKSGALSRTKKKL
Work on `COc1cc2c(cc1OC)-c1[nH]nc(Nc3cccc(F)c3)c1C2` yielded a residual activity of 99.5%.
`Cn1cc(/C=C2\C(=O)Nc3ccc(S(N)(=O)=O)cc32)c2ccccc21` was tested, and the residual activity was 46.3%.
`COc1cccc(-c2cc(=O)c3ccccc3o2)c1N` was tested, and the residual activity was 98.2%.
Compound `O=C1NC(=O)c2cc(Nc3ccc(F)cc3)c(Nc3ccc(F)cc3)cc21` has a residual activity of 99.3%.
Work on `N#CCCc1ccc2c(c1)-c1[nH]c3ccc([N+](=O)[O-])cc3c1CC(=O)N2` yielded a residual activity of 78.8%.

Each compound was assayed against MLTK (human) (UniProt Q9NYL2) in the same assay as above. Settings: compound 0.5 µM; ATP 10 µM.
Compound `COc1cc2c(cc1OC)-c1[nH]nc(Nc3cccc(F)c3)c1C2` has a residual activity of 44.7%.
Compound `Cn1cc(/C=C2\C(=O)Nc3ccc(S(N)(=O)=O)cc32)c2ccccc21` has a residual activity of 95%.
For `COc1cccc(-c2cc(=O)c3ccccc3o2)c1N`, the residual activity was 103%.
Compound `O=C1NC(=O)c2cc(Nc3ccc(F)cc3)c(Nc3ccc(F)cc3)cc21` has a residual activity of 94.5%.
Work on `N#CCCc1ccc2c(c1)-c1[nH]c3ccc([N+](=O)[O-])cc3c1CC(=O)N2` yielded a residual activity of 88.6%.

The compounds below were run against GRK4 (human) (UniProt P32298) in the same assay as above. Settings: compound 0.5 µM; ATP 10 µM.
GRK4 (human), sequence (P32298 whole entry, looked up): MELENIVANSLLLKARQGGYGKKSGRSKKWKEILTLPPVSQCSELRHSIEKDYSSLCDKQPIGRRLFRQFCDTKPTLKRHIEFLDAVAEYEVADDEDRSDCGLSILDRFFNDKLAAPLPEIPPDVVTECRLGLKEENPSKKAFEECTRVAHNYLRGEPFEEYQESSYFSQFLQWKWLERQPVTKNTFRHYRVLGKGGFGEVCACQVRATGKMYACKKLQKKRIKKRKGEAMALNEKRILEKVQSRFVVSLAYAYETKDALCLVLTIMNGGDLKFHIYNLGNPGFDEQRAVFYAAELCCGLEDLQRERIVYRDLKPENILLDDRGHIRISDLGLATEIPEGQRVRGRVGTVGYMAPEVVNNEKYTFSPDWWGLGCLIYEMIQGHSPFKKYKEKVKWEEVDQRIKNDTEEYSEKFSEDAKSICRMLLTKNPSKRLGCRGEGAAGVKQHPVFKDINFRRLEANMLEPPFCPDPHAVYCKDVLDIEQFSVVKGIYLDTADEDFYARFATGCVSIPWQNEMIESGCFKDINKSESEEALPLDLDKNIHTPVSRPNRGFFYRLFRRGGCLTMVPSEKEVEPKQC
`COc1cc2c(cc1OC)-c1[nH]nc(Nc3cccc(F)c3)c1C2` showed a residual activity of 97.1%.
In the case of `Cn1cc(/C=C2\C(=O)Nc3ccc(S(N)(=O)=O)cc32)c2ccccc21`, the residual activity is reported as 40.4%.
With `COc1cccc(-c2cc(=O)c3ccccc3o2)c1N` the residual activity was 104%.
